The subject of data set [1] is anaesthetised rats. Nature of the data set: intravenous toxicity in anaesthetised rats. The following applies: two anaesthetised rats, ten times the dose giving approximate 50% inhibition of gastric secretion in the anaesthetised rat. The data set is classed as in vivo. Here is the method: (§1) No overt toxicity or side effects were noted during the rat or dog tests. The compound 4-[3-(4-[2-(2,2,2-trifluoroethyl)guanidino]pyrimid-2-ylthio)propyl]-imidazole was administered intravenously to groups of two anaesthetised rats and four conscious mice at doses which were respectively ten times and one hundred times the dose, in mg./kg., which produced an approximate 50% inhibition of gastric secretion in the anaesthetised rat.

In data set [2] the test system is conscious mice. Nature of the data set: intravenous toxicity in conscious mice. The data set is classed as in vivo. Conditions: four conscious mice, one hundred times the dose giving approximate 50% inhibition of gastric secretion in the anaesthetised rat. Here is the method:
as §1

With `NC(=NCC(F)(F)F)Nc1ccnc(SCCCc2c[nH]cn2)n1.O=C(O)/C=C\C(=O)O` [Example 2, 4-[3-(4-[2-(2,2,2-trifluoroethyl)guanidino]pyrimid-2-ylthio)propyl]imidazole dihydrogen maleate], the toxic symptoms result in data set [1] and in data set [2] was “No toxic symptoms were noted” in each case.
